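Five compound concentrations were applied to cells in 96-well plates for 48 hours; endpoints were derived by simple linear interpolation of the resulting dose-response curve. GI50 = concentration required for 50% inhibition of growth.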 Active and inactive are the calls of the source. No stated cut-off is given here; in the data, active = GI50 up to about 1.1 µM and inactive = higher.
Experiments:
Assay in all cases: growth of human tumour cells (NCI), 48 h
786-0 = system: 786-0
A549 = system: A549
ACHN = system: ACHN
DU-145 = system: DU-145
Hs-578T = system: Hs-578T
IGROV-1 = system: IGROV-1
KM12 = system: KM12
LOX IMVI = system: LOX IMVI
M14 = system: M14
MCF7 = system: MCF7
MDA-MB-231 = system: MDA-MB-231
MDA-N = system: MDA-N
NCI-H23 = system: NCI-H23
OVCAR-4 = system: OVCAR-4
OVCAR-5 = system: OVCAR-5
SK-OV-3 = system: SK-OV-3
SNB-75 = system: SNB-75
SR = system: SR
T47D = system: T47D
UACC-62 = system: UACC-62

Measured: GI50

C=CCO/N=C/c1cc(/N=C(/S)c2ccoc2C)ccc1Cl
inactive: 786-0 22.6 µM | A549 21 µM | ACHN 5.71 µM | DU-145 14 µM | Hs-578T 24.4 µM | IGROV-1 13.2 µM | KM12 7.93 µM | LOX IMVI 14.6 µM | M14 16.6 µM | MCF7 9.66 µM | MDA-MB-231 13.3 µM | MDA-N 13.6 µM | NCI-H23 10 µM | OVCAR-4 5.18 µM | OVCAR-5 16.6 µM | SK-OV-3 18 µM | SNB-75 15.7 µM | SR 6.22 µM | T47D 3.65 µM | UACC-62 14.4 µM

COc1cc([N+](=O)[O-])cc2c1NC(=O)C2(C)SC (stereo not given)
inactive: 786-0 > 100 µM | A549 > 100 µM | ACHN > 100 µM | DU-145 > 100 µM | Hs-578T > 100 µM | IGROV-1 > 100 µM | KM12 > 100 µM | LOX IMVI 88.1 µM | M14 52.8 µM | MCF7 79.4 µM | MDA-MB-231 > 100 µM | MDA-N 51.8 µM | NCI-H23 > 100 µM | OVCAR-4 90.2 µM | OVCAR-5 > 100 µM | SK-OV-3 25.4 µM | SNB-75 38.2 µM | SR 68.2 µM | T47D 66.8 µM | UACC-62 96.8 µM

OC(C1=C/C(=C\c2ccncc2)c2ccccc21)c1ccncc1 (stereo not given)
inactive: 786-0 12.9 µM | A549 13.3 µM | ACHN 14.8 µM | DU-145 17 µM | Hs-578T 12.2 µM | IGROV-1 14.4 µM | KM12 15.6 µM | LOX IMVI 12.1 µM | M14 12.4 µM | MCF7 9.86 µM | MDA-MB-231 6.98 µM | MDA-N 10.8 µM | NCI-H23 12.4 µM | OVCAR-4 12.4 µM | OVCAR-5 15.8 µM | SK-OV-3 13.8 µM | SNB-75 5.85 µM | SR 5.4 µM | T47D 4.38 µM | UACC-62 9.16 µM

O=C1NC(=O)C(C(CC(=O)c2ccc([N+](=O)[O-])cc2)c2ccccc2)C(=O)N1 (stereo not given)
inactive: 786-0 > 100 µM | A549 97.3 µM | ACHN > 100 µM | DU-145 > 100 µM | Hs-578T 10.9 µM | IGROV-1 > 100 µM | KM12 14.8 µM | LOX IMVI 20 µM | M14 > 100 µM | MCF7 13.5 µM | MDA-MB-231 > 100 µM | MDA-N 27.2 µM | NCI-H23 20.7 µM | OVCAR-4 > 100 µM | OVCAR-5 > 100 µM | SK-OV-3 > 100 µM | SNB-75 > 100 µM | SR 40 µM | T47D 20.5 µM | UACC-62 77.1 µM

Reference: ChEMBL document CHEMBL1201862, “PubChem BioAssay data set” (2004)
